The values below come from ChEMBL document CHEMBL1143249, “N-alkyl-4-piperidinyl-2,3-diarylpyrrole derivatives with heterocyclic substitutions as potent and broad spectrum anticoccidial agents” (Bioorg Med Chem Lett, 2008).

In experiment [1] the target is cGMP-dependent protein kinase (Eimeria tenella, UniProt Q8MMZ8). Briefly: Inhibition of Eimeria tenella cGMP-dependent protein kinase.
The subject of experiment [2] is Eimeria tenella. Kind of experiment: Anticoccidial activity against Eimeria tenella in chick assessed as reduction in oocyst at 100 ppm, po after 6 days. It is filed as functional. Details: scale not given: the % may be the effect or the level left.
Experiment [3] deals with Eimeria acervulina. Kind of experiment: Anticoccidial activity against Eimeria acervulina in chick assessed as reduction in oocyst at 100 ppm, po after 5 days. It is filed as functional. Set-up: scale not given: the % may be the effect or the level left.
Experiment [4] relates to Eimeria acervulina. Kind of experiment: Anticoccidial activity against Eimeria acervulina in chick assessed as reduction in oocyst at 50 ppm, po after 5 days. The experiment is classed as functional, organism-based.
The subject of experiment [5] is Eimeria tenella. Briefly: Anticoccidial activity against Eimeria tenella in chick assessed as reduction in oocyst at 50 ppm, po after 6 days. It is filed as functional, organism-based.

Activity calls are given as the source filed them. No cut-off for these calls is given here.

cGMP-dependent protein kinase, sequence (Q8MMZ8 whole entry): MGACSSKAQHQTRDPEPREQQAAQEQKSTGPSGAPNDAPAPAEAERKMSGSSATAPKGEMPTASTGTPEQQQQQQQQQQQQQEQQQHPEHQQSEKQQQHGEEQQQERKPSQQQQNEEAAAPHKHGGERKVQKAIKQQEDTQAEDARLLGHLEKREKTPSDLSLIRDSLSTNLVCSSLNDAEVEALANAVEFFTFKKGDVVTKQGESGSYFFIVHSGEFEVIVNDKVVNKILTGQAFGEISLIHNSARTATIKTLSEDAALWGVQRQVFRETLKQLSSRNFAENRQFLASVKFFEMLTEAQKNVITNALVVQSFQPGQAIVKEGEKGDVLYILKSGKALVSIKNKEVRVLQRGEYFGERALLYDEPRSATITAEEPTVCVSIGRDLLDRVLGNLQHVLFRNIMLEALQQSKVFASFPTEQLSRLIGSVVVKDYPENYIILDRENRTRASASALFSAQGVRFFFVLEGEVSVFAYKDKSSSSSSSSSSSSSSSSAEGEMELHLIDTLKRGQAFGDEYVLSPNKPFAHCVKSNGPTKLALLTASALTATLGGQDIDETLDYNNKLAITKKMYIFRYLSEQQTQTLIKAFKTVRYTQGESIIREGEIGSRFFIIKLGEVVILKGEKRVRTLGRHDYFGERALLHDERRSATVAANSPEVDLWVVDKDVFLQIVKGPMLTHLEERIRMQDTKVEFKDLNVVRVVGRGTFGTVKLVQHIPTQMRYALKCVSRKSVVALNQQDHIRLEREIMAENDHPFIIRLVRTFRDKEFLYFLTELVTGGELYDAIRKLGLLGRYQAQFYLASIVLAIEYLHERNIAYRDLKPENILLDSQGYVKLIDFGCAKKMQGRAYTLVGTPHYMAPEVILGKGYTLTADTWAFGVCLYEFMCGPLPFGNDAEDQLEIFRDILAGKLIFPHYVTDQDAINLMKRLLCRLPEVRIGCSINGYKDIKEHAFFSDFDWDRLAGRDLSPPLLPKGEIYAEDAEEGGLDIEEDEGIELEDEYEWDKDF

As a reminder, the IC50 is the concentration that gives 50% inhibition. `COC(=O)N1CCOC(CN2CCC(c3cc(-c4ccncc4)c(-c4ccc(F)cc4)[nH]3)CC2)C1` (stereo unspecified) returned an IC50 in experiment [1] of 1.03 nM. Moreover, the Activity worked out at 80% in the experiment with Eimeria tenella [2] and 50% in the experiment with Eimeria acervulina [3].

On to `CC(=O)N1C[C@H](O)C[C@H]1CN1CCC(c2cc(-c3ccncc3)c(-c3ccc(F)cc3)[nH]2)CC1`, for which, in experiment [1], the midpoint of inhibition, the IC50, lay at 2.2 nM. Moreover, the figures for the Activity in the experiment with Eimeria tenella [2] and in the experiment with Eimeria acervulina [3] were 80% and 50%, respectively.

Turning to `O[C@H]1CN[C@H](CN2CCC(c3cc(-c4ccncc4)c(-c4ccc(F)cc4)[nH]3)CC2)C1`, the half-maximal inhibitory concentration (IC50) in experiment [1] was determined as 0.16 nM. Further, the Activity in the experiment on Eimeria tenella [2] is given as 80%; in the experiment with Eimeria acervulina [3], 50%.

For the molecule `CN1C[C@H](O)C[C@H]1CN1CCC(c2cc(-c3ccncc3)c(-c3ccc(F)cc3)[nH]2)CC1`, in experiment [1], the 50% inhibitory concentration (IC50) was found to be 0.34 nM. For the same molecule, the Activity with Eimeria tenella [2] worked out at 80%; in the experiment with Eimeria acervulina [3] it was 50%.

Regarding `COC(=O)N1CCOC(C(=O)N2CCC(c3cc(-c4ccncc4)c(-c4ccc(F)cc4)[nH]3)CC2)C1` (stereo unspecified), half-maximal inhibition in experiment [1] (IC50) was put at 4.7 nM. The Activity in the experiment on Eimeria tenella [2] and with Eimeria acervulina [3] was 50% each time.

In experiment [1], `Fc1ccc(-c2[nH]c(C3CCN(CCN4CCC4)CC3)cc2-c2ccncc2)cc1` came in with an IC50 of 0.08 nM. Besides, the Activity with Eimeria tenella [2] and in the experiment on Eimeria acervulina [3] was 80% throughout.

In experiment [1], `O=C(CN1CCC(c2cc(-c3ccncc3)c(-c3ccc(F)cc3)[nH]2)CC1)N1CCC1` registered an IC50 of 1.01 nM. Further, the Activity in the experiment on Eimeria tenella [2] and in the experiment with Eimeria acervulina [3] was 80% throughout.

In turn, `CC(=O)N1CCN(C(C)=O)C(CN2CCC(c3cc(-c4ccncc4)c(-c4ccc(F)cc4)[nH]3)CC2)C1` (stereo unspecified) registered an IC50 in experiment [1] of 2.2 nM. Further, the result with Eimeria tenella [2] and in the experiment with Eimeria acervulina [3] was inactive.

For `CN1CC[C@H]1CN1CCC(c2cc(-c3ccncc3)c(-c3ccc(F)cc3)[nH]2)CC1`, in experiment [1], half-maximal inhibition (IC50) required 0.28 nM. For the same molecule, the Activity in the experiment with Eimeria tenella [2] and with Eimeria acervulina [3] was 80% each time.

In the case of `Fc1ccc(-c2[nH]c(C3CCN(CC4CNCCO4)CC3)cc2-c2ccncc2)cc1` (stereo unspecified), the IC50 in experiment [1] was 0.17 nM. In addition, the figures for the Activity in the experiment on Eimeria tenella [2] and with Eimeria acervulina [3] were 80% and 50%, respectively.

Turning to `CN1CCOC(CN2CCC(c3cc(-c4ccncc4)c(-c4ccc(F)cc4)[nH]3)CC2)C1` (stereo unspecified), the result in the experiment with Eimeria acervulina [4] and in the experiment on Eimeria tenella [5] was Active. Moreover, the half-maximal inhibitory concentration (IC50) in experiment [1] turned out to be 0.67 nM. Also, the Activity in the experiment on Eimeria tenella [2] and in the experiment on Eimeria acervulina [3] was 80% throughout.

In experiment [1], `O=C(C1CNCCO1)N1CCC(c2cc(-c3ccncc3)c(-c3ccc(F)cc3)[nH]2)CC1` (stereo unspecified) came in with an IC50 of 0.27 nM. The Activity is given as 80% in the experiment on Eimeria tenella [2] and 50% with Eimeria acervulina [3].

For the molecule `OC[C@@H]1CCN1CCN1CCC(c2cc(-c3ccncc3)c(-c3ccc(F)cc3)[nH]2)CC1`, 1.7 nM corresponded to half-maximal inhibition in experiment [1] (IC50). The Activity in the experiment on Eimeria tenella [2] and in the experiment with Eimeria acervulina [3] was 80% throughout.

For the molecule `CN1CCN(C)C(CN2CCC(c3cc(-c4ccncc4)c(-c4ccc(F)cc4)[nH]3)CC2)C1` (stereo unspecified), in experiment [1], the IC50 is 1.08 nM. Further, the Activity in the experiment on Eimeria tenella [2] and with Eimeria acervulina [3] was 50% throughout.

Consider `CCN1C[C@H](O)C[C@H]1CN1CCC(c2cc(-c3ccncc3)c(-c3ccc(F)cc3)[nH]2)CC1`, for which the IC50 in experiment [1] is 0.36 nM. For the same molecule, the Activity in the experiment with Eimeria tenella [2] amounted to 80%; in the experiment with Eimeria acervulina [3], 50%.

In experiment [1], `CC(CN1CCC1)N1CCC(c2cc(-c3ccncc3)c(-c3ccc(F)cc3)[nH]2)CC1` (stereo unspecified) came in with an IC50 of 0.4 nM. Moreover, the Activity in the experiment with Eimeria tenella [2] and with Eimeria acervulina [3] was 80% in each case.

Take `Fc1ccc(-c2[nH]c(C3CCN(CC4CNCCN4)CC3)cc2-c2ccncc2)cc1` (stereo unspecified): in experiment [1], half-maximal inhibition (IC50) was put at 0.07 nM. For the same molecule, the Activity in the experiment with Eimeria tenella [2] is reported as 80%; with Eimeria acervulina [3], 50%.

In the case of `CS(=O)(=O)N1CCN(S(C)(=O)=O)C(CN2CCC(c3cc(-c4ccncc4)c(-c4ccc(F)cc4)[nH]3)CC2)C1` (stereo unspecified), in experiment [1], the IC50 is 1.41 nM. In addition, the result in the experiment on Eimeria tenella [2] and in the experiment on Eimeria acervulina [3] was inactive.
